The test system of assay [1] is Machupo pseudotyped virus. In words: organism not typed. Type of assay: cell-based. To be noted: read-out: Activity (EC50 in μM vs. pseudotyped virus) Machupo.
The subject of another assay is VSVg pseudotyped virus. Briefly: organism not typed. Type of assay: cell-based. To be noted: read-out: Activity (EC50 in μM vs. pseudotyped virus) VSVg.
Assay [2] has as its system Lassa GP-pseudotyped-virus. Briefly: microbe, parasite or virus in culture. The format is cell-based, Lassa fever virus. To be noted: Human immunodeficiency virus 1, read-out: Activity (EC50 in μM vs. pseudotyped virus) Lassa.

Where a name gives a salt, the structure may show the parent alone.

The EC50 is the concentration at which the effect is half-maximal. In the case of `CCOc1ccc(Cn2cnc3cc(NCc4ccc(CC)cc4)cnc32)cc1` [Compound 62, 3-[(4-ethoxyphenyl)methyl]-N-[(4-ethylphenyl)-methyl]imidazo[4,5-b]pyridin-6-amine], the EC50 (in assay [1]; with VSVg pseudotyped virus; in assay [2]) was 1 to 10 µM throughout.
In the case of `CCOc1ccc(-n2cnc3ccc(CCc4ccc(CC)cc4)cc32)cc1` [Compound 35, 1-(4-ethoxyphenyl)-6-[2-(4-ethylphenyl)-ethyl]benzimidazole], the values for the EC50 (in assay [1]; in the assay on VSVg pseudotyped virus; in assay [2]) were under 1 µM, 10 to 50 µM and under 1 µM, respectively.
Regarding `CC(C)Oc1ccc(-n2cnc3cc(/C=C\c4ccc(C5(O)CCCC5)cc4)ccc32)cc1` [Compound 56, 1-[4-[(Z)-2-[1-(4-isopropoxyphenyl)benzimidazol-5-yl]vinyl]phenyl]cyclopentanol], the results for the EC50 (in assay [1]; in the assay on VSVg pseudotyped virus; in assay [2]) were under 1 µM, 1 to 10 µM and under 1 µM, respectively.
In the case of `CCOc1ccc(-n2cnc3cc(/C=C/c4ccc(C(C)(C)C)cc4)ccc32)nc1` [Compound 20, 5-[(E)-2-(4-tert-butylphenyl)vinyl]-1-(5-ethoxy-2-pyridyl)benzimidazole hydrochloride], the EC50 with VSVg pseudotyped virus was 1 to 10 µM; in assay [2], under 1 µM.
The matching figures for `CCOc1ccc(-n2cnc3cc(/C=C/c4ccc(C(C)(C)C)cc4)ccc32)cc1` [Compound 4, 5-[(E)-2-(4-tert-butylphenyl)vinyl]-1-(4-ethoxyphenyl)-benzimidazole]: 10 to 50 µM and under 1 µM.
As for `CC(C)Oc1ccc(-n2cnc3cc(/C=C\c4ccc(C(C)(C)C(F)(F)F)cc4)ccc32)cc1` [Compound 43, 1-(4-isopropoxyphenyl)-5-[(Z)-2-[4-(2,2,2-trifluoro-1,1-dimethyl-ethyl)phenyl]vinyl]benzimidazole], the 50% effective concentration (EC50) was under 1 µM in assay [1], 1 to 10 µM with VSVg pseudotyped virus and under 1 µM in assay [2].
In the case of `CC(C)Oc1ccc(-n2cnc3cc(/C=C/c4ccc(C(C)(C)C)cc4)ccc32)cc1` [Compound 6, 5-[(E)-2-(4-tert-butylphenyl)vinyl]-1-(4-isopropoxyphenyl)-benzimidazole], the values for the EC50 (with VSVg pseudotyped virus; in assay [2]) were 10 to 50 µM and under 1 µM, respectively.
On to `CC(C)Oc1ccc(-n2cnc3cc(/C=C\c4ccc(C(O)(C(F)(F)F)C(F)(F)F)cc4)ccc32)cc1` [Compound 47, 1,1,1,3,3,3-hexafluoro-2-[4-[(Z)-2-[1-(4-isopropoxyphenyl)benzimidazol-5-yl]vinyl]phenyl]propan-2-ol], for which the EC50 in assay [1] was under 1 µM; in the assay on VSVg pseudotyped virus, 1 to 10 µM; in assay [2], under 1 µM.
For the molecule `COc1ccc(-n2cnc3cc(/C=C/c4ccc(C(C)C)cc4)cnc32)cc1` [Compound 25, 6-[(E)-2-(4-isopropylphenyl)vinyl]-3-(4-methoxyphenyl)imidazo[4,5-b]pyridine], the results for the EC50 (with VSVg pseudotyped virus; in assay [2]) were over 50 µM and 1 to 10 µM, respectively.
Consider `CC(C)Oc1ccc(-n2cnc3cc(/C=C\c4ccc(CCC=O)cc4)ccc32)cc1` [Compound 44, 3-[4-[(Z)-2-[1-(4-isopropoxyphenyl)benzimidazol-5-yl]vinyl]phenyl]propanal], for which the EC50 with VSVg pseudotyped virus is 10 to 50 µM; in assay [2] it was under 1 µM.
On to `CC(C)Oc1ccc(-n2cnc3cc(/C=C\c4ccc(C(C)(C)O)cc4)ccc32)nc1` [Compound 42, 2-[4-[(Z)-2-[1-(5-isopropoxy-2-pyridyl)benzimidazol-5-yl]vinyl]phenyl]propan-2-ol], for which the EC50 in assay [1] is under 1 µM; in the assay on VSVg pseudotyped virus, 1 to 10 µM; in assay [2], under 1 µM.
As for `CCOc1ccc(-n2ccc3cc(NCc4ccc(CC)cc4)ccc32)cc1` [Compound 63, 1-(4-ethoxyphenyl)-N-[(4-ethylphenyl)-methyl]indol-5-amine], the EC50 in assay [1] was under 1 µM; in the assay with VSVg pseudotyped virus, 10 to 50 µM; in assay [2], under 1 µM.
As for `CCCCC(O)(CCCC)c1ccc(/C=C\c2ccc3c(c2)ncn3-c2ccc(OC(C)C)cc2)cc1` [Compound 41, 5-[4-[(Z)-2-[1-(4-isopropoxyphenyl)benzimidazol-5-yl]vinyl]phenyl]nonan-5-ol], the EC50 in assay [1] is under 1 µM; in the assay on VSVg pseudotyped virus, 10 to 50 µM; in assay [2] it was under 1 µM.
Take `COc1ccc(-n2cnc3cc(/C=C/c4ccc(C(C)C)cc4)ccc32)cc1` [Compound 3, 5-[(E)-2-(4-isopropylphenyl)vinyl]-1-(4-methoxyphenyl)benzimidazole]: the values for the EC50 (in the assay with VSVg pseudotyped virus; in assay [2]) were 10 to 50 µM and 1 to 10 µM, respectively.
As to `CCOc1ccc(-n2ccc3cc(NCc4ccc(CC)cc4)cnc32)cc1` [Compound 66, 1-(4-ethoxyphenyl)-N-[(4-ethylphenyl)-methyl]pyrrolo[2,3-b]pyridin-5-amine], the EC50 in assay [1] was 1 to 10 µM; in the assay with VSVg pseudotyped virus it was over 50 µM; in assay [2] it was under 1 µM.
For the molecule `CCOc1ccc(-n2cnc3cc(/C=C/c4ccc(CC)cc4)cnc32)cc1` [Compound 23, 3-(4-ethoxyphenyl)-6-[(E)-2-(4-ethylphenyl)vinyl]imidazo[4,5-b]pyridine], the figures for the EC50 (in the assay on VSVg pseudotyped virus; in assay [2]) were over 50 µM and 1 to 10 µM, respectively.
With `CCc1ccc(/C=C/c2ccc3c(c2)ncn3-c2ccc(OC(C)(C)C)cc2)cc1` [Compound 14, 1-(4-tert-butoxyphenyl)-5-[(E)-2-(4-ethylphenyl)-vinyl]benzimidazole], the half-maximal effective concentration (EC50) lay within 10 to 50 µM in the assay on VSVg pseudotyped virus and 1 to 10 µM in assay [2].
For `CC(C)Oc1ccc(-n2cnc3cc(/C=C\c4ccc(C(C)(O)C(=O)O)cc4)ccc32)cc1` (stereo not shown) [Compound 55, 2-hydroxy-2-[4-[(Z)-2-[1-(4-isopropoxyphenyl)benzimidazol-5-yl]vinyl]phenyl]propanoic acid], the results for the EC50 (with VSVg pseudotyped virus; in assay [2]) were over 50 µM and under 1 µM, respectively.
Taken in the same sequence, the figures for `CC(C)Oc1ccc(-n2cnc3cc(/C=C\c4ccc(C#N)cc4)ccc32)cc1` [Compound 49, 4-[(Z)-2-[1-(4-isopropoxyphenyl)benzimidazol-5-yl]vinyl]benzonitrile] were 10 to 50 µM and under 1 µM.
In the case of `CCOc1ccc(-n2cnc3cc(/C=C/c4ccc(CC)cc4)ccc32)cc1` [Compound 1, 1-(4-ethoxyphenyl)-5-[(E)-2-(4-ethylphenyl)vinyl]benzimidazole], the values for the 50% effective concentration (EC50) (in assay [1]; in the assay on VSVg pseudotyped virus; in assay [2]) were under 1 µM, 10 to 50 µM and under 1 µM, respectively.
Take `CC(C)Oc1ccc(-n2cnc3cc(/C=C\c4ccc(C(C)(O)C(F)(F)F)cc4)ccc32)cc1` (stereo not shown) [Compound 46, 1,1,1-trifluoro-2-[4-[(Z)-2-[1-(4-isopropoxyphenyl)benzimidazol-5-yl]vinyl]phenyl]propan-2-ol]: the EC50 is under 1 µM in assay [1], 1 to 10 µM in the assay with VSVg pseudotyped virus and under 1 µM in assay [2].
With `CC(C)(C)Oc1ccc(-n2cnc3cc(/C=C/c4ccc(C(C)(C)C)cc4)ccc32)cc1` [Compound 16, 1-(4-tert-butoxyphenyl)-5-[(E)-2-(4-tert-butylphenyl)vinyl]benzimidazole], the EC50 in the assay on VSVg pseudotyped virus was in the range of 10 to 50 µM; in assay [2], 1 to 10 µM.
`CC(C)Oc1ccc(-n2cnc3cc(/C=C\c4ccc(C5(O)CCCCC5)cc4)ccc32)cc1` [Compound 57, 1-[4-[(Z)-2-[1-(4-isopropoxyphenyl)benzimidazol-5-yl]vinyl]phenyl]cyclohexanol]: the results for the EC50 (in assay [1]; with VSVg pseudotyped virus; in assay [2]) were under 1 µM, 1 to 10 µM and under 1 µM, respectively.

Values taken from patent US10000486B2 (priority 2012, dated 2018).
